# Test results as given in US12521375B2, “Pharmaceutical composition for treating fatty liver disease” (Shionogi & Co., Ltd., priority 2020, dated 2026).
# What was measured:
# [1] = test system: Malonyl-CoA concentration in organ; assay: Test for evaluating malonyl-CoA concentration in liver and muscles; assay type: in vivo, BKS.Cg-+Lepr^db/+Lepr^db/Jcl mice; conditions: for Malonyl-CoA concentration in organ with vehicle administration group defined as 100%, Liver / Malonyl-CoA concentration in organ with vehicle administration group defined as 100%, Muscle: 2 hours after administration
# Method: Eight-week-old male BKS.Cg-+Lepr^db/+Lepr^db/Jcl mice were fasted for 4 hours, then the compound of the present invention was orally administered at a dose of 0.3 to 6 mg/5 mL/kg, and 2 hours after administration, the mice were killed by exsanguination through whole blood collection from the abdominal vena cava under anesthesia. Then, the liver and muscles were removed, and a 9% homogenate was prepared in a homogenizing buffer (distilled water: 60% perchloric acid: 85% phosphoric acid=43:5:2). The malonyl-CoA concentration in the tissue was quantified by LC/MS/MS.
# [2] = test system: mice fed an ultra-high fat, choline-deficient, methionine-lowered diet; assay: Effect on liver fibrosis progression in mice fed ultra-high fat, choline-deficient, methionine-lowered diet; assay type: in vivo, C57BL/6JJcl mice; design: 3-hydroxybutyric acid in plasma: unit not given here; conditions: for Amount of triglyceride in liver / Sirius red-positive area rate / 3-hydroxybutyric acid in plasma / Plasma triglyceride concentration: bid; for Amount of triglyceride in liver / Sirius red-positive area rate: oral, 8 weeks
# Method: Six-week-old male C57BL/6JJcl mice were fed an ultra-high fat, choline-deficient, methionine-lowered diet (60 kcal % fat content, using lard, choline-deficient, methionine-lowered (0.1%)), and at the same time, the compound of the present invention was suspended in a vehicle (0.5% methylcellulose aqueous solution) so as to have a dose of 3 to 45 mg/kg/10 mL, and orally repeatedly administered (b.i.d.) for 8 weeks. Blood was collected from the tail vein during the repeated administration period, and biochemical parameters in plasma were measured. After 8 weeks of administration, blood was collected from the abdominal vena cava under anesthesia, and then the liver was collected. Paraffin-embedded sections prepared from the collected liver were subjected to Sirius red staining. A degree of fibrosis progression in the liver was determined from a Sirius red-positive area rate and evaluated.
# [3] = test system: high-fat diet-loaded mice with spontaneous fatty liver; assay: Effect on liver fibrosis progression in high-fat diet-loaded mice with spontaneous fatty liver; assay type: in vivo, FLS.B6-Lep<ob>/Shi mice; design: 3-hydroxybutyric acid in plasma: unit not given here; conditions: for Amount of triglyceride in liver / Sirius red-positive area rate / 3-hydroxybutyric acid in plasma / Plasma triglyceride concentration: bid; for Amount of triglyceride in liver / Sirius red-positive area rate: oral, 4 weeks
# Method: Eight-week-old male FLS.B6-Lep/Shi mice were fed a high-fat diet (60 kcal % fat content, using shortening, containing 2% cholesterol and 8.7% fructose), and at the same time, the compound of the present invention was suspended in a 0.5% MC aqueous solution so as to have a dose of 5.5 to 60 mg/kg/5 mL, and orally repeatedly administered (b.i.d.) for 4 weeks. Blood was collected from the tail vein during the repeated administration period, and biochemical parameters in plasma were measured. After 4 weeks of administration, blood was collected from the abdominal vena cava under anesthesia, and then the liver was collected. Paraffin-embedded sections prepared from the collected liver were subjected to Sirius red staining. A degree of fibrosis progression in the liver was determined from a Sirius red-positive area rate and evaluated.
# Crl:CD (SD) rats = assay: Influence on platelet count; assay type: in vivo; conditions: for Platelet count: oral, 4 days, SD rats
# Method: The compound of the present invention was suspended in a 0.5% methylcellulose solution so as to have a dose of 50 to 600 mg/kg/day, and was orally repeatedly administered for 4 days to 6-week-old male Crl:CD (SD) rats under non-fasted conditions. On day 5 from the start of administration, blood was collected from the abdominal vena cava under anesthesia, and […]. A platelet count in plasma was evaluated with an automatic hemocytometer.
compound,measurement,setting,value
C[C@@H](CO[C@H]1CC[C@H](Oc2nc3c(F)cc(OC4CC4)cc3n2C)CC1)NC(N)=O [Compound I-12],"Malonyl-CoA concentration in organ with vehicle administration group defined as 100%, Liver",[1]; 0.67 mg/kg oral,92.8%
same,"Malonyl-CoA concentration in organ with vehicle administration group defined as 100%, Muscle",[1]; 0.67 mg/kg oral,70.8%
same,"Malonyl-CoA concentration in organ with vehicle administration group defined as 100%, Liver",[1]; 2 mg/kg oral,91.1%
same,"Malonyl-CoA concentration in organ with vehicle administration group defined as 100%, Muscle",[1]; 2 mg/kg oral,59.5%
same,"Malonyl-CoA concentration in organ with vehicle administration group defined as 100%, Liver",[1]; 6 mg/kg oral,84.0%
same,"Malonyl-CoA concentration in organ with vehicle administration group defined as 100%, Muscle",[1]; 6 mg/kg oral,56.4%
same,malonyl-CoA concentrations in the liver and muscles (in words),[1]; 0.3 to 6 mg/kg oral,reduced malonyl-CoA concentrations in the liver and muscles in a compound dose-dependent manner
same,Amount of triglyceride in liver,[2]; 3 mg/kg,157 ± 7.3 mg/g tissue
same,Sirius red-positive area rate,[2]; 3 mg/kg,3.47 ± 0.41%
same,3-hydroxybutyric acid in plasma,"[2]; 3 mg/kg, Week 2",128 ± 23
same,Plasma triglyceride concentration,"[2]; 3 mg/kg, Week 2",32.9 ± 1.3 mg/dL
same,3-hydroxybutyric acid in plasma,"[2]; 3 mg/kg, Week 4",155 ± 31
same,Plasma triglyceride concentration,"[2]; 3 mg/kg, Week 4",22.4 ± 2.1 mg/dL
same,3-hydroxybutyric acid in plasma,"[2]; 3 mg/kg, Week 7",108 ± 31
same,Plasma triglyceride concentration,"[2]; 3 mg/kg, Week 7",27.2 ± 1.5 mg/dL
same,Amount of triglyceride in liver,[2]; 10 mg/kg,137 ± 7.2 mg/g tissue
same,Sirius red-positive area rate,[2]; 10 mg/kg,4.46 ± 0.69%
same,3-hydroxybutyric acid in plasma,"[2]; 10 mg/kg, Week 2",136 ± 23
same,Plasma triglyceride concentration,"[2]; 10 mg/kg, Week 2",30.4 ± 2.2 mg/dL
same,3-hydroxybutyric acid in plasma,"[2]; 10 mg/kg, Week 4",292 ± 27
same,Plasma triglyceride concentration,"[2]; 10 mg/kg, Week 4",21.5 ± 1.8 mg/dL
same,3-hydroxybutyric acid in plasma,"[2]; 10 mg/kg, Week 7",119 ± 34
same,Plasma triglyceride concentration,"[2]; 10 mg/kg, Week 7",22.1 ± 1.9 mg/dL
same,Amount of triglyceride in liver,[2]; 30 mg/kg,144 ± 7.5 mg/g tissue
same,Sirius red-positive area rate,[2]; 30 mg/kg,2.29 ± 0.32 %
same,3-hydroxybutyric acid in plasma,"[2]; 30 mg/kg, Week 2",189 ± 33
same,Plasma triglyceride concentration,"[2]; 30 mg/kg, Week 2",23.1 ± 2.5 mg/dL
same,3-hydroxybutyric acid in plasma,"[2]; 30 mg/kg, Week 4",292 ± 82
same,Plasma triglyceride concentration,"[2]; 30 mg/kg, Week 4",11.1 ± 1.1 mg/dL
same,3-hydroxybutyric acid in plasma,"[2]; 30 mg/kg, Week 7",187 ± 28
same,Plasma triglyceride concentration,"[2]; 30 mg/kg, Week 7",16.2 ± 1.6 mg/dL
same,Sirius red-positive area rate vs vehicle administration group (in words),[2]; dose of 30 mg/kg,significantly lower than that of the vehicle administration group
same,amount of triglyceride in the liver vs vehicle administration group (in words),[2]; dose of 10 or 30 mg/kg,significantly lower than that of the vehicle administration group
same,concentration of 3-hydroxybutyric acid in plasma vs vehicle administration group (in words),"[2]; mouse, in vivo",higher than that in the vehicle administration group
same,plasma triglyceride concentration vs vehicle administration group (in words),"[2]; mouse, in vivo",lower than that in the vehicle administration group
same,Amount of triglyceride in liver,[3]; 5.5 mg/kg,451 ± 17 mg/g tissue
same,Sirius red-positive area rate,[3]; 5.5 mg/kg,1.26 ± 0.13 %
same,3-hydroxybutyric acid in plasma,"[3]; 5.5 mg/kg, Week 0",184 ± 20
same,Plasma triglyceride concentration,"[3]; 5.5 mg/kg, Week 0",790 ± 95 mg/dL
same,3-hydroxybutyric acid in plasma,"[3]; 5.5 mg/kg, Week 1",470 ± 93
same,Plasma triglyceride concentration,"[3]; 5.5 mg/kg, Week 1",369 ± 32 mg/dL
same,3-hydroxybutyric acid in plasma,"[3]; 5.5 mg/kg, Week 2",1108 ± 120
same,Plasma triglyceride concentration,"[3]; 5.5 mg/kg, Week 2",464 ± 30 mg/dL
same,3-hydroxybutyric acid in plasma,"[3]; 5.5 mg/kg, Week 4",1354 ± 170
same,Plasma triglyceride concentration,"[3]; 5.5 mg/kg, Week 4",513 ± 23 mg/dL
same,Amount of triglyceride in liver,[3]; 11 mg/kg,441 ± 11 mg/g tissue
same,Sirius red-positive area rate,[3]; 11 mg/kg,1.52 ± 0.18%
same,3-hydroxybutyric acid in plasma,"[3]; 11 mg/kg, Week 0",178 ± 8.7
same,Plasma triglyceride concentration,"[3]; 11 mg/kg, Week 0",619 ± 76 mg/dL
same,3-hydroxybutyric acid in plasma,"[3]; 11 mg/kg, Week 1",449 ± 140
same,Plasma triglyceride concentration,"[3]; 11 mg/kg, Week 1",382 ± 44 mg/dL
same,3-hydroxybutyric acid in plasma,"[3]; 11 mg/kg, Week 2",1314 ± 370
same,Plasma triglyceride concentration,"[3]; 11 mg/kg, Week 2",497 ± 39 mg/dL
same,3-hydroxybutyric acid in plasma,"[3]; 11 mg/kg, Week 4",1508 ± 380
same,Plasma triglyceride concentration,"[3]; 11 mg/kg, Week 4",500 ± 27 mg/dL
same,Sirius red-positive area rate vs vehicle administration group (in words),[3]; dose of 5.5 mg/kg,significantly lower than that of the vehicle administration group
same,amount of triglyceride in the liver vs vehicle administration group (in words),"[3]; mouse, in vivo",not significantly different from that in the vehicle administration group
same,concentration of 3-hydroxybutyric acid in plasma vs vehicle administration group (in words),"[3]; mouse, in vivo",tended to be higher than that in the vehicle administration group
same,plasma triglyceride concentration vs vehicle administration group (in words),"[3]; mouse, in vivo",not significantly different from that in the vehicle administration group
same,Platelet count,Crl:CD (SD) rats; 100 mg/kg/day,987 ± 86
same,Platelet count,Crl:CD (SD) rats; 300 mg/kg/day,988 ± 43
same,Platelet count,Crl:CD (SD) rats; 600 mg/kg/day,1061 ± 85
same,platelet count in SD rats (in words),Crl:CD (SD) rats; within a dose range used for evaluation (50 to 600 mg/kg/day),did not affect the platelet count
